Data reported in ChEMBL document CHEMBL1201862, “PubChem BioAssay data set” (2004).
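Compound exposure: 48 hours, 5 concentrations, 96-well plates. The concentration for 50% growth inhibition is given as GI50.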 Active and inactive are the calls of the source. Rule as the data show it: active = GI50 up to about 1.1 µM and inactive = higher.

Columns and labels:
Assay in all cases: NCI-60 cell line screen, 48 h
LXFL 529 = test system: LXFL 529
SNB-78 = test system: SNB-78
DLD-1 = test system: DLD-1
XF498 = test system: XF498
DMS-273 = test system: DMS-273
DMS-114 = test system: DMS-114
RXF 631 = test system: RXF 631
MDA-MB-231 = test system: MDA-MB-231
DU-145 = test system: DU-145

Measured: GI50

C=CCN1C(N)=C(C(N)=O)S/C1=C1/SC(=S)N(c2ccc(C)cc2)C1=O
inactive: LXFL 529 > 100 µM

COc1ccc(CNc2nc3cc(C(F)(F)F)ccc3nc2C)cc1OC
inactive: SNB-78 12.2 µM | DLD-1 35.7 µM | XF498 35.3 µM | DMS-273 20 µM | LXFL 529 35.8 µM

O=C1C=C[C@@H](COC2OC(CO)C(O)C(O)C2O)O1 (some centres not stated)
inactive: DLD-1 3.35 µM | DMS-114 14.1 µM | XF498 16.6 µM | DMS-273 14.1 µM

Cn1cc(C(=O)/C(Cl)=C(\Cl)C(=O)O)c2ccccc21
inactive: SNB-78 > 100 µM | DLD-1 > 100 µM | RXF 631 > 100 µM | DMS-114 > 100 µM | XF498 > 100 µM | DMS-273 > 100 µM

O=C(c1ccc(Cl)cc1)N1CCN=C1c1cc2ccccc2c2ccccc12
inactive: MDA-MB-231 16.2 µM | DU-145 17.9 µM

CCCn1c(CN(Cc2nc3ccccc3n2CCC)Cc2nc3ccccc3n2CCC)nc2ccccc21
inactive: MDA-MB-231 2.04 µM | DU-145 7.83 µM

Cc1c(C#N)c2nnn(C)c(=O)n2c1-c1ccccc1
inactive: MDA-MB-231 > 100 µM

O=C1C[C@H](Sc2ccccc2)C2(OCCO2)[C@H]2ON3CCC[C@@H]3[C@@H]12
inactive: MDA-MB-231 3.33 µM | DU-145 2.61 µM

O=C(CSc1nc2ccccc2c2ccccc12)c1ccccc1
inactive: MDA-MB-231 > 100 µM | DU-145 > 100 µM

Cc1c2ccnc(C(F)(F)F)c2cc2c1[nH]c1ccccc12
inactive: SNB-78 86.5 µM | DLD-1 > 125 µM | DMS-114 > 125 µM | XF498 12 µM | DMS-273 > 125 µM

COc1cc2nc(-c3cccc(N(C)C)c3)cc(O)c2cc1OC
inactive: SNB-78 5.83 µM | DLD-1 4.5 µM | DMS-114 4.73 µM | XF498 6.32 µM | DMS-273 3.85 µM | LXFL 529 5.22 µM

COc1cc(Nc2c3ccccc3nc3ccccc23)ccc1NS(C)(=O)=O
inactive: SNB-78 7.67 µM | DLD-1 5.14 µM | DMS-114 6.58 µM | LXFL 529 4.8 µM

CCCSc1ccc2[nH]c(N3C(=O)/C(=C/c4cc(OC)c(OC)c(OC)c4)N=C3c3ccccc3)cc2c1
inactive: MDA-MB-231 > 37.5 µM | DU-145 10.1 µM

O=S1(=O)CS(=O)(=O)OCCCO1
inactive: MDA-MB-231 > 100 µM | DU-145 > 100 µM

CC(O)C(O)C(N)CC=O (configuration not stated)
inactive: SNB-78 > 482 µM | DLD-1 > 500 µM | DMS-114 > 500 µM | XF498 > 129 µM | DMS-273 > 500 µM

CS/C(=N\S(=O)(=O)c1ccc(Cl)cc1)NCCN/C(=N/S(=O)(=O)c1ccc(Cl)cc1)SC
inactive: MDA-MB-231 > 100 µM | DU-145 > 100 µM

CC1(C)CCCC2(C)[C@@H]1CC[C@]13C[C@](C)(CC[C@@H]21)[C@@H]3CO (some centres not stated)
inactive: SNB-78 > 100 µM | DLD-1 > 100 µM | RXF 631 > 100 µM | DMS-114 > 100 µM | XF498 > 100 µM | DMS-273 > 100 µM | LXFL 529 > 100 µM

O=C1/C(=C\c2cccc(Oc3ccccc3)c2)SC(c2ccccc2)N1c1cccc([N+](=O)[O-])c1 (configuration not stated)
inactive: MDA-MB-231 > 100 µM | DU-145 > 100 µM

Cc1sc(Cc2ccccc2)nc1-c1ccc(N)cc1
inactive: MDA-MB-231 26.1 µM

CC(C)(C)CI
inactive: SNB-78 32.1 µM | DLD-1 34.2 µM | RXF 631 32.3 µM | DMS-114 19.7 µM | XF498 18.5 µM | DMS-273 15.1 µM | LXFL 529 33.3 µM

O=C(O)c1ccc([Se][Se]c2ccc(C(=O)O)cc2)cc1
inactive: SNB-78 18.7 µM | DLD-1 34 µM | RXF 631 19 µM | DMS-114 20.6 µM | XF498 31.7 µM | DMS-273 21.9 µM | LXFL 529 23 µM

COc1cc(Nc2nc3cc(C(F)(F)F)ccc3n3cccc23)cc(OC)c1OC
inactive: DU-145 > 100 µM

CC(C)OP(=O)(OC(C)C)/C(=N/Nc1ccc([N+](=O)[O-])cc1)NCCO
inactive: SNB-78 99.8 µM | DLD-1 > 100 µM | DMS-114 90.6 µM | XF498 > 100 µM | DMS-273 > 100 µM | LXFL 529 38.4 µM
